The record followed here is US20260242413A1, “ENDOTOXIN NE[…]” (AMFERIA AB, priority 2023, published 2026).

This assay deals with E. coli (CCUG 29300). Briefly: Endotoxin binding of AMP functionalised crosslinked hydrogel particle dispersion, chromogenic LAL endotoxin assay. It counts as cell-based. Conditions: E. coli 10^6 CFU/ml, 37° C., 1 hour, 3 hours and 24 hours, FIG. 2 and 3.

Where no end group is shown, it is not given here.

Regarding “RRPRPRPRPWWWW-NH2 [RRP9W4N, PRELP derived amphiphilic antimicrobial peptide, free in PBS solution]”, the endotoxin neutralisation result was “neutralised endotoxins in all measured durations of incubation”.
